These results are taken from US20100016387A1, “METHOD OF TREATMENT” (priority 2006, published 2010).

Data set [1] relates to neonatal rat cardiomyocytes. In words: Fatty acid oxidation (14CO2 release from 14C-palmitate) in rat primary cardiomyocytes treated with DGAT1 inhibitor. As to conditions: 1 μM, 2 hr.
Description: Neonatal Rat Ventricular Myocytes (NRVM's) were extracted from 1-3 day old Sprague Dawley rat pups. […] Both the right and left ventricles were digested in CBHHF media containing 0.2% Trypsin, 100 U Penn-Strep and DNAse II. […] Fibroblasts were separated from the myocytes by preplating for 30 min. […] Myocytes were then collected and cultured in MEM/5% FBS/Pen-Strep/BrDU/L-Gln overnight at 37 C, 5.0% CO2 at a confluency of 75-80% (1.8×10^6 cells per well of a 6 well plate and 0.9×10^6 cells per well of a 12 well plate). The following day myocyte containing plates were assayed for fatty acid oxidation capacity.
Rat primary cardiomyocytes were plated in either 6 well plate or 12 well plate. […] The sample was counted on a beta scintillation counter after resting for at least 2 hours. […]
Primary rat cardiomyocytes were incubated with 1 μM {4-[4-(4-Amino-7,7-dimethyl-7H-pyrimido[4,5-b][1,4]oxazin-6-yl)-phenyl]-cyclohexyl}-acetic acid for 2 hr. The cells were then incubated with ^14C-labeled palmitate and liberated ^14CO2 was determined as described. […]
Primary rat cardiomyocytes were incubated with 1 μM {4-[4-(4-Amino-7,7-dimethyl-7H-pyrimido[4,5-b][1,4]oxazin-6-yl)-phenyl]-cyclohexyl}-acetic acid for 2 hr. The cells were then incubated with ^14C-labeled palmitate, with 0.5 mM glucose, and liberated ^14CO2 was determined as described. […]

Each structure is given as a SMILES string.

The term melting point denotes the temperature, or range, at which the solid turns liquid.

Turning to `Cc1ccc(NC(=O)c2ccc3c(c2)C(=O)N(c2c(C)cccc2C)C3=O)cc1C`, the melting point lay within 223 to 225 °C.

With `CC1(C)Oc2ncnc(N)c2N=C1c1ccc(C2CCC(CC(=O)O)CC2)cc1` (stereo not drawn), the “fatty acid oxidation in cardiomyocytes in presence of glucose” value in data set [1] (0.5 mM glucose, FIG. 3, p<0.05) is given as “robust decrease in fatty acid oxidation”. The “decrease in the ability of cells to oxidize [14C]palmitate” value in data set [1] (absence of glucose, FIG. 2, p<0.05) is around 15%.
